Test results as given in patent US10072003B2, “Tetrahydronaphthyridine derivatives as mGluR2-negative allosteric modulators, compositions, and their use” (Merck Sharp & Dohme Corp., priority 2014, dated 2018).

Target: recombinant human mGluR2 (Homo sapiens (Human), UniProt Q14416)
Experiment: FLIPR Ca2+ mobilization antagonist assay in CHO dhfr- cells expressing human mGluR2 and Gα16
Type: cell-based
Conditions: antagonist response after addition of 2,500 nM glutamate, Fluo-4 AM, FLIPR384
Outline: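 CHO dhfr- cells stably co-expressing human mGluR2 and Gα16, Fluo-4 AM loaded, preincubated with compound, then challenged with 2,500 nM glutamate; Ca2+ response read by FLIPR. Maximum calcium response vs concentration fitted to four-parameter logistic for IC50.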

recombinant human mGluR2, sequence (Q14416 19-872): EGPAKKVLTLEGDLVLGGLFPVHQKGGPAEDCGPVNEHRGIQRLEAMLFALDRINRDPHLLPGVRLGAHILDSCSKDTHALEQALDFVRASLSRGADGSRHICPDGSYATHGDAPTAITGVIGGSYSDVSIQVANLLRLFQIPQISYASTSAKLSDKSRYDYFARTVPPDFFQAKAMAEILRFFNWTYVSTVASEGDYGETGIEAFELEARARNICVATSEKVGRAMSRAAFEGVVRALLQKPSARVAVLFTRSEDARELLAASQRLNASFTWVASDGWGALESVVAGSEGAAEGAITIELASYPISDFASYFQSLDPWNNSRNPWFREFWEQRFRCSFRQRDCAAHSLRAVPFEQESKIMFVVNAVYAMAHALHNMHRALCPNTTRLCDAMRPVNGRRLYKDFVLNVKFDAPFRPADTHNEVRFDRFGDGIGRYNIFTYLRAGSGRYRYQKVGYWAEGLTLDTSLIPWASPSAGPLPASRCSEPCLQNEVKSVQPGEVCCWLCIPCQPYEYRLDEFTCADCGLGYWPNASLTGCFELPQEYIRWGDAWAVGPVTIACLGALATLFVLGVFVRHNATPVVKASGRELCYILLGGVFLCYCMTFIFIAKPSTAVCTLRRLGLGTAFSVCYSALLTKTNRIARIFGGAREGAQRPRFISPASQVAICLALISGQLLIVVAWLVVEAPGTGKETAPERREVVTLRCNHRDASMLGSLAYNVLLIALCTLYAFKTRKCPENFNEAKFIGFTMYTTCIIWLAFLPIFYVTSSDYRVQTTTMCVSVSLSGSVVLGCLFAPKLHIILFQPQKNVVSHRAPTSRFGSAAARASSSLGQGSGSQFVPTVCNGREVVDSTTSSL

| Compound | IC50 [nM] |
| --- | --- |
| NC(=O)c1cc(-c2ccc(F)cc2Cl)c2c(n1)CN(Cc1ccnc(C(F)(F)F)n1)CC2 [Example 11-5, 4-(2-chloro-4-fluorophenyl)-7-{[2-(trifluoromethyl)pyrimidin-4-yl]methyl}-5,6,7,8-tetrahydro-1,7-naphthyridine-2-carboxamide] | 17.6 |
| NC(=O)c1cc(-c2c(F)cc(F)cc2F)c2c(n1)CN(Cc1ccnc(C(F)(F)F)n1)CC2 [Example 11-6, 7-{[2-(trifluoromethyl)pyrimidin-4-yl]methyl}-4-(2,4,6-trifluorophenyl)-5,6,7,8-tetrahydro-1,7-naphthyridine-2-carboxamide] | 13.2 |
| NC(=O)c1cc(-c2c(F)cccc2Cl)c2c(n1)CN(Cc1ccnc(C(F)(F)F)n1)CC2 [Example 11-7, 4-(2-chloro-6-fluorophenyl)-7-{[2-(trifluoromethyl)pyrimidin-4-yl]methyl}-5,6,7,8-tetrahydro-1,7-naphthyridine-2-carboxamide] | 45.2 |
| NC(=O)c1cc(-c2ccccc2F)c2c(n1)CN(Cc1ccnc(C(F)(F)F)n1)CC2 [Example 11-8, 4-(2-fluorophenyl)-7-{[2-(trifluoromethyl)pyrimidin-4-yl]methyl}-5,6,7,8-tetrahydro-1,7-naphthyridine-2-carboxamide] | 11.8 |
| NC(=O)c1cc(-c2c(F)cc(Cl)cc2F)c2c(n1)CN(Cc1ccnc(C(F)(F)F)n1)CC2 [Example 11-9, 4-(4-chloro-2,6-difluorophenyl)-7-{[2-(trifluoromethyl)pyrimidin-4-yl]methyl}-5,6,7,8-tetrahydro-1,7-naphthyridine-2-carboxamide] | 6.5 |
| NC(=O)c1cc(-c2ccc(F)cc2)c2c(n1)CN(Cc1cc(C(F)(F)F)ncn1)CC2 [Example 11-10, 4-(4-fluorophenyl)-7-{[6-(trifluoromethyl)pyrimidin-4-yl]methyl}-5,6,7,8-tetrahydro-1,7-naphthyridine-2-carboxamide] | 7.6 |
| NC(=O)c1cc(-c2c(F)cc(F)cc2F)c2c(n1)CN(Cc1cc(C(F)(F)F)ncn1)CC2 [Example 11-11, 7-{[6-(trifluoromethyl)pyrimidin-4-yl]methyl}-4-(2,4,6-trifluorophenyl)-5,6,7,8-tetrahydro-1,7-naphthyridine-2-carboxamide] | 26.1 |
| NC(=O)c1cc(-c2ccc(Cl)cc2F)c2c(n1)CN(Cc1cc(C(F)(F)F)ncn1)CC2 [Example 11-12, 4-(4-chloro-2-fluorophenyl)-7-{[6-(trifluoromethyl)pyrimidin-4-yl]methyl}-5,6,7,8-tetrahydro-1,7-naphthyridine-2-carboxamide] | 10 |
| NC(=O)c1cc(N2CCC(F)(F)CC2)c2c(n1)CN(Cc1ccnc(C(F)(F)F)n1)CC2 [Example 12-1, 4-(4,4-difluoropiperidin-1-yl)-7-((2-(trifluoromethyl)pyrimidin-4-yl)methyl)-5,6,7,8-tetrahydro-1,7-naphthyridine-2-carboxamide] | 40.9 |
| NC(=O)c1cc(N2CCC3(CC2)CC3)c2c(n1)CN(Cc1ccnc(C(F)(F)F)n1)CC2 [Example 12-2, 4-(6-azaspiro[2.5]oct-6-yl)-7-{[2-(trifluoromethyl)pyrimidin-4-yl]methyl}-5,6,7,8-tetrahydro-1,7-naphthyridine-2-carboxamide] | 13.1 |
| NC(=O)c1cc(-n2cc(Cl)cn2)c2c(n1)CN(Cc1ccnc(C(F)(F)F)n1)CC2 [Example 12-3, 4-(4-chloro-1H-pyrazol-1-yl)-7-{[2-(trifluoromethyl)pyrimidin-4-yl]methyl}-5,6,7,8-tetrahydro-1,7-naphthyridine-2-carboxamide] | 93.2 |
| NC(=O)c1cc(N2CCC(F)(F)CC2)c2c(n1)CN(Cc1cc(C(F)(F)F)ncn1)CC2 [Example 12-4, 4-(4,4-difluoropiperidin-1-yl)-7-{[6-(trifluoromethyl)pyrimidin-4-yl]methyl}-5,6,7,8-tetrahydro-1,7-naphthyridine-2-carboxamide] | 35.9 |
| NC(=O)c1cc(N2CCC3(CC2)CC3)c2c(n1)CN(Cc1cc(C(F)(F)F)ncn1)CC2 [Example 12-5, 4-(6-azaspiro[2.5]oct-6-yl)-7-{[6-(trifluoromethyl)pyrimidin-4-yl]methyl}-5,6,7,8-tetrahydro-1,7-naphthyridine-2-carboxamide] | 20.4 |
| COc1cc(CN2CCc3c(-c4ccc(F)cc4F)cc(C(N)=O)nc3C2)ccn1 [Example 13-1, 4-(2,4-difluorophenyl)-7-((2-methoxypyridin-4-yl)methyl)-5,6,7,8-tetrahydro-1,7-naphthyridine-2-carboxamide] | 7.8 |
| COc1ccc(-c2cc(C(N)=O)nc3c2CCN(Cc2ccnc(OC)c2)C3)c(F)c1 [Example 13-2, 4-(2-fluoro-4-methoxyphenyl)-7-[(2-methoxypyridin-4-yl)methyl]-5,6,7,8-tetrahydro-1,7-naphthyridine-2-carboxamide] | 6.6 |
| COc1cc(CN2CCc3c(-c4ccc(Cl)cc4F)cc(C(N)=O)nc3C2)ccn1 [Example 13-3, 4-(4-chloro-2-fluorophenyl)-7-[(2-methoxypyridin-4-yl)methyl]-5,6,7,8-tetrahydro-1,7-naphthyridine-2-carboxamide] | 16 |
| COc1cc(CN2CCc3c(-c4ccc(F)cc4Cl)cc(C(N)=O)nc3C2)ccn1 [Example 13-4, 4-(2-chloro-4-fluorophenyl)-7-[(2-methoxypyridin-4-yl)methyl]-5,6,7,8-tetrahydro-1,7-naphthyridine-2-carboxamide] | 5.7 |
